These results are taken from patent US11780839B2, “Compounds for treating Huntington's disease” (PTC THERAPEUTICS, INC., priority 2018, dated 2023).

As a reminder, the IC50 is the concentration that gives 50% inhibition.

This assay concerns Endogenous Huntingtin Protein. Put plainly: Endogenous Huntingtin Protein Assay (ELISA-based Meso Scale Discovery electrochemiluminescence). The format is cell-based. The conditions noted are these: MSD electrochemiluminescence, Table 1. In short, it runs like this: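 Sandwich MSD electrochemiluminescence immunoassay. Capture used MW1 (expanded polyglutamine) or MAB2166 antibody coated at 1 μg/mL overnight at 4 °C. Samples were bound overnight at 4 °C, then a rabbit monoclonal detection antibody and SULFO-TAG anti-rabbit, each at 0.25 μg/mL, were applied for 1 h at room temperature.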
Background: In an ELISA, binding on a coated surface is turned into a signal by an enzyme label.
On to `C[C@@H]1CN(c2ncc(-c3ccc(-c4ccc5nccn5n4)cc3O)nn2)C[C@H](C)N1` [Cpd 385, 2-{3-[(3R,5S)-3,5-dimethylpiperazin-1-yl]-1,2,4-triazin-6-yl}-5-(imidazo[1,2-b]pyridazin-6-yl)phenol], for which the IC50 is not above 100 nM.

As for `CC1(C)CC(Nc2ncc(-c3ccc(-c4cn5ccccc5n4)cc3O)nn2)CC(C)(C)N1` [Cpd 360, 5-(imidazo[1,2-a]pyridin-2-yl)-2-{3-[(2,2,6,6-tetramethylpiperidin-4-yl)amino]-1,2,4-triazin-6-yl}phenol], the IC50 was 100 to 500 nM.

`CN(c1ncc(-c2ccc(-c3ccc4[nH]ncc4c3)cc2O)nn1)C1CC(C)(C)NC(C)(C)C1` [Cpd 97, 5-(1H-indazol-5-yl)-2-{3-[methyl(2,2,6,6-tetramethylpiperidin-4-yl)amino]-1,2,4-triazin-6-yl}phenol] displayed an IC50 not above 100 nM.

In the case of `CN(c1ncc(-c2ccc(-c3ccn(C)c(=O)c3)cc2O)nn1)C1CC(C)(C)NC(C)(C)C1` [Cpd 56], the IC50 is not above 100 nM.

With `CN1CCC2(CCN(c3ncc(-c4ccc(-c5cn[nH]c5)cc4O)nn3)CC2)C1` [Cpd 183], the IC50 was 100 to 500 nM.

“2-{3-{[(2S)-2-aminopropyl](methyl)amino}-1,2,4-triazin-6-yl)-5-(1H-pyrazol-4-yl)phenol [Cpd 190]” returned an IC50 not above 100 nM.

`CC12CC3CC(C)(C1)CC(NC1CCN(c4ncc(-c5ccc(-c6cn[nH]c6)cc5O)nn4)C1)(C3)C2` (stereo not drawn) [Cpd 160, 2-(3-{3-[(3,5-dimethyladamantan-1-yl)amino]pyrrolidin-1-yl}-1,2,4-triazin-6-yl)-5-(1H-pyrazol-4-yl)phenol]: the IC50 is 1000 to 3000 nM.

As to `CN1CCC(Nc2ncc(-c3ccc(-c4cn[nH]c4)cc3O)nn2)CC1` [Cpd 52, 2-{3-[(1-methylpiperidin-4-yl)amino]-1,2,4-triazin-6-yl}-5-(1H-pyrazol-4-yl)phenol], the IC50 is 100 to 500 nM.

Regarding `CC(C)N[C@@H]1CCN(c2ncc(-c3ccc(-c4cn[nH]c4)cc3O)nn2)C1` [Cpd 348, 2-(3-{(3R)-3-[(propan-2-yl)amino]pyrrolidin-l-yl}-1,2,4-triazin-6-yl)-5-(1H-pyrazol-4-yl)phenol], the IC50 was not above 100 nM.

`CNC1CCN(c2ncc(-c3ccc(-n4ccnc4)cc3O)nn2)C1` (stereo not drawn) [Cpd 220, 5-(1H-imidazol-1-yl)-2-{3-[3-(methylamino)pyrrolidin-1-yl]-1,2,4-triazin-6-yl}phenol] yielded a concentration for half-maximal inhibition (IC50) of more than 500 nM.

Turning to `CN(c1ncc(-c2ccc(-c3cnc4[nH]ncc4n3)cc2O)nn1)C1CC(C)(C)NC(C)(C)C1` [Cpd 194, 2-{3-[methyl(2,2,6,6-tetramethylpiperidin-4-yl)amino]-1,2,4-triazin-6-yl}-5-(1H-pyrazolo[3,4-b]pyrazin-5-yl)phenol], the IC50 was not above 100 nM.

`Cc1nnn(-c2ccc(-c3cnc(N(C)C4CC(C)(C)NC(C)(C)C4)nn3)c(O)c2)n1` [Cpd 119, 2-{3-[methyl(2,2,6,6-tetramethylpiperidin-4-yl)amino]-1,2,4-triazin-6-yl}-5-(5-methyl-2H-tetrazol-2-yl)phenol] displayed an IC50 not above 100 nM.

`CN(c1ncc(-c2ccc(-c3ncnc(O)n3)cc2O)nn1)C1CC(C)(C)NC(C)(C)C1` [Cpd 33, 4-(3-hydroxy-4-{3-[methyl(2,2,6,6-tetramethylpiperidin-4-yl)amino]-1,2,4-triazin-6-yl}phenyl)-1,3,5-triazin-2-ol] gave an IC50 of 1000 to 3000 nM.

`Oc1cc(-c2cn[nH]c2)ccc1-c1cnc(N2C[C@@H]3CCCN[C@@H]3C2)nn1` [Cpd 306, 2-{3-[(4aS,7aS)-octahydro-6H-pyrrolo[3,4-b]pyridin-6-yl]-1,2,4-triazin-6-yl}-5-(1H-pyrazol-4-yl)phenol] showed a concentration for half-maximal inhibition (IC50) of 100 to 500 nM.

`CN1CCCC2(CCN(c3ncc(-c4ccc(-c5cn[nH]c5)cc4O)nn3)CC2)C1` [Cpd 182, 2-[3-(2-methyl-2,9-diazaspiro[5.5]undecan-9-yl)-1,2,4-triazin-6-yl]-5-(1H-pyrazol-4-yl)phenol] gave an IC50 of more than 500 nM.

For `CC(C)NC1CCN(c2ncc(-c3ccc(-n4ccnc4)cc3O)nn2)C1` (stereo not drawn) [Cpd 331], the IC50 lay within 100 to 500 nM.

The compound `Oc1cc(-c2cn[nH]c2)ccc1-c1cnc(N2CCC(CNC3CCCOC3)C2)nn1` (stereo not drawn) [Cpd 404, 2-[3-(3-{[(oxan-3-yl)amino]methyl}pyrrolidin-1-yl)-1,2,4-triazin-6-yl]-5-(1H-pyrazol-4-yl)phenol] gave an IC50 not above 100 nM.

The compound `COCC(C)(C)NC1CCN(c2ncc(-c3ccc(-c4cn[nH]c4)cc3O)nn2)C1` (stereo not drawn) [Cpd 341, 2-(3-{3-[(1-methoxy-2-methylpropan-2-yl)amino]pyrrolidin-1-yl}-1,2,4-triazin-6-yl)-5-(1H-pyrazol-4-yl)phenol] gave an IC50 not above 100 nM.

Compound `CNC1CCN(c2ncc(-c3ccc(-c4cc(OC)ncn4)cc3O)nn2)C1` (stereo not drawn) [Cpd 268, 5-(6-methoxypyrimidin-4-yl)-2-{3-[(methylamino)pyrrolidin-1-yl]-1,2,4-triazin-6-yl}phenol] registered a half-inhibitory concentration (IC50) not above 100 nM.

Compound `CN(c1ncc(-c2ccc(-c3cn[nH]c3)cc2O)nn1)C1C[C@H]2CCC[C@@H](C1)N2` (stereo partly drawn) [Cpd 22, 2-(3-{[(1R,3S,5S)-9-azabicyclo[3.3.1]nonan-3-yl](methyl)amino}-1,2,4-triazin-6-yl)-5-(1H-pyrazol-4-yl)phenol] came in with a 50% inhibitory concentration (IC50) not above 100 nM.

`CC1(C)C[C@H](Nc2ncc(-c3ccc(-c4cn[nH]c4)cc3O)nn2)[C@H](O)C(C)(C)N1` [Cpd 298, (3S,4S)-4-({6-[2-hydroxy-4-(1H-pyrazol-4-yl)phenyl]-1,2,4-triazin-3-yl}amino)-2,2,6,6-tetramethylpiperidin-3-ol] returned an IC50 of 1000 to 3000 nM.

`CN1CCC2(CC1)CN(c1ncc(-c3ccc(-c4cnc5c(cnn5C)c4)cc3O)nn1)C2` [Cpd 224, 2-[3-(7-methyl-2,7-diazaspiro[3.5]nonan-2-yl)-1,2,4-triazin-6-yl]-5-(1-methyl-1H-pyrazolo[3,4-b]pyridin-5-yl)phenol]: the IC50 lay in the range of 1000 to 3000 nM.

For the compound `Cc1nc2c(C)cc(-c3ccc(-c4cnc(N(C)C5CC(C)(C)NC(C)(C)C5)nn4)c(O)c3)nc2o1` [Cpd 169, 5-(2,7-dimethyl[1,3]oxazolo[5,4-b]pyridin-5-yl)-2-{3-[methyl(2,2,6,6-tetramethylpiperidin-4-yl)amino]-1,2,4-triazin-6-yl}phenol], the half-inhibitory concentration (IC50) was not above 100 nM.

With `CN(c1ncc(-c2ccc(-c3cnc4[nH]ccc4n3)cc2O)nn1)C1CC(C)(C)NC(C)(C)C1` [Cpd 158, 2-{3-[methyl(2,2,6,6-tetramethylpiperidin-4-yl)amino]-1,2,4-triazin-6-yl}-5-(5H-pyrrolo[2,3-b]pyrazin-2-yl)phenol], the 50% inhibitory concentration (IC50) was in the range of 1000 to 3000 nM.

Consider `Cn1ncc2cc(-c3ccc(-c4cnc(N5CCC(NC(C)(C)C)C5)nn4)c(O)c3)cnc21` (stereo not drawn) [Cpd 221, 2-{3-[3-(tert-butylamino)pyrrolidin-1-yl]-1,2,4-triazin-6-yl}-5-(1-methyl-1H-pyrazolo[3,4-b]pyridin-5-yl)phenol], for which the IC50 is more than 500 nM.

`Oc1cc(-c2cn[nH]c2)ccc1-c1cnc(N2CCC(NC3COC3)C2)nn1` (stereo not drawn) [Cpd 312, 2-(3-{3-[(oxetan-3-yl)amino]pyrrolidin-1-yl}-1,2,4-triazin-6-yl)-5-(1H-pyrazol-4-yl)phenol] returned an IC50 of 1000 to 3000 nM.

For `Cc1ncn(-c2ccc(-c3cnc(N(C)C4CC(C)(C)NC(C)(C)C4)nn3)c(O)c2)n1` [Cpd 51, 2-{3-[methyl(2,2,6,6-tetramethylpiperidin-4-yl)amino]-1,2,4-triazin-6-yl}-5-(3-methyl-1H-1,2,4-triazol-1-yl)phenol], the IC50 was more than 500 nM.
